Measured values taken from ChEMBL document CHEMBL4346705, “(±)-trans-Dihydronarciclasine and (±)-trans-dihydrolycoricidine analogues modified in their ring A: Evaluation of their anticancer activity and a SAR study” (2019).

How the values were obtained:
Type in all cases: functional
A498 = assay: Antiproliferative activity against human A498 cells assessed as cell viability at 10^-5 M incubated for 48 hrs by sulforhodamine B assay relative to control; conditions: A498, 48 h, read-out: Activity
HOP-62 = assay: Antiproliferative activity against human HOP62 cells assessed as cell viability at 10^-5 M incubated for 48 hrs by sulforhodamine B assay relative to control; conditions: HOP-62, 48 h, read-out: Activity
MDA-MB-435 = assay: Antiproliferative activity against human MDA-MB-435 cells assessed as cell viability at 10^-5 M incubated for 48 hrs by sulforhodamine B assay relative to control; conditions: MDA-MB-435, 48 h, read-out: Activity
MDA-MB-231 = assay: Cytotoxicity against human MDA-MB-231 cells assessed as growth inhibition after 48 hrs by sulforhodamine B assay; conditions: MDA-MB-231, 48 h
SNB-19 = assay: Antiproliferative activity against human SNB19 cells assessed as cell viability at 10^-5 M incubated for 48 hrs by sulforhodamine B assay relative to control; conditions: SNB-19, 48 h, read-out: Activity
NCI-H322M = assay: Cytotoxicity against human NCI-H322M cells assessed as growth inhibition after 48 hrs by sulforhodamine B assay; conditions: for CC50: read-out: LC50 (the source's name)
MOLT-4 = assay: Antiproliferative activity against human MOLT4 cells assessed as cell viability at 10^-5 M incubated for 48 hrs by sulforhodamine B assay relative to control; conditions: MOLT-4, 48 h, read-out: Activity
KM12 = assay: Antiproliferative activity against human KM12 cells assessed as cell viability at 10^-5 M incubated for 48 hrs by sulforhodamine B assay relative to control; conditions: KM12, 48 h, read-out: Activity
SW-620 = assay: Antiproliferative activity against human SW620 cells assessed as cell viability at 10^-5 M incubated for 48 hrs by sulforhodamine B assay relative to control; conditions: SW-620, 48 h, read-out: Activity
Malme-3M = assay: Antiproliferative activity against human MALME-3M cells assessed as cell viability at 10^-5 M incubated for 48 hrs by sulforhodamine B assay relative to control; conditions: read-out: Activity
OVCAR-3 = assay: Antiproliferative activity against human OVCAR3 cells assessed as cell viability at 10^-5 M incubated for 48 hrs by sulforhodamine B assay relative to control; conditions: OVCAR-3, 48 h, read-out: Activity
OVCAR-5 = assay: Antiproliferative activity against human OVCAR5 cells assessed as cell viability at 10^-5 M incubated for 48 hrs by sulforhodamine B assay relative to control; conditions: OVCAR-5, 48 h, read-out: Activity
SNB-75 = assay: Antiproliferative activity against human SNB75 cells assessed as cell viability at 10^-5 M incubated for 48 hrs by sulforhodamine B assay relative to control; conditions: SNB-75, 48 h, read-out: Activity
PC-3 = assay: Antiproliferative activity against human PC3 cells assessed as cell viability at 10^-5 M incubated for 48 hrs by sulforhodamine B assay relative to control; conditions: PC-3, 48 h, read-out: Activity
BT-549 = assay: Antiproliferative activity against human BT549 cells assessed as cell viability at 10^-5 M incubated for 48 hrs by sulforhodamine B assay relative to control; conditions: BT-549, 48 h, read-out: Activity
MDA-MB-468 = assay: Antiproliferative activity against human MDA-MB-468 cells assessed as cell viability at 10^-5 M incubated for 48 hrs by sulforhodamine B assay relative to control; conditions: MDA-MB-468, 48 h, read-out: Activity
NCI/ADR-RES = assay: Antiproliferative activity against human NCI-ADR-RES cells assessed as cell viability at 10^-5 M incubated for 48 hrs by sulforhodamine B assay relative to control; conditions: read-out: Activity
HCT-15 = assay: Antiproliferative activity against human HCT15 cells assessed as cell viability at 10^-5 M incubated for 48 hrs by sulforhodamine B assay relative to control; conditions: HCT-15, 48 h, read-out: Activity
HCC 2998 = assay: Antiproliferative activity against human HCC2998 cells assessed as cell viability at 10^-5 M incubated for 48 hrs by sulforhodamine B assay relative to control; conditions: HCC 2998, 48 h, read-out: Activity
A549 = assay: Antiproliferative activity against human A549 cells assessed as cell viability at 10^-5 M incubated for 48 hrs by sulforhodamine B assay relative to control; conditions: A549, 48 h, read-out: Activity
SF-268 [1] = assay: Antiproliferative activity against human SF268 cells assessed as cell viability at 10^-5 M incubated for 48 hrs by sulforhodamine B assay relative to control; conditions: SF-268, 48 h, read-out: Activity
SK-OV-3 = assay: Antiproliferative activity against human SKOV3 cells assessed as cell viability at 10^-5 M incubated for 48 hrs by sulforhodamine B assay relative to control; conditions: SK-OV-3, 48 h, read-out: Activity
DU-145 = assay: Antiproliferative activity against human DU145 cells assessed as cell viability at 10^-5 M incubated for 48 hrs by sulforhodamine B assay relative to control; conditions: DU-145, 48 h, read-out: Activity
SF-268 [2] = assay: Cytotoxicity against human SF268 cells assessed as growth inhibition after 48 hrs by sulforhodamine B assay; conditions: SF-268, 48 h
NCI-H460 = assay: Antiproliferative activity against human NCI-H460 cells assessed as cell viability at 10^-5 M incubated for 48 hrs by sulforhodamine B assay relative to control; conditions: NCI-H460, 48 h, read-out: Activity
COLO 205 = assay: Antiproliferative activity against human COLO205 cells assessed as cell viability at 10^-5 M incubated for 48 hrs by sulforhodamine B assay relative to control; conditions: COLO 205, 48 h, read-out: Activity
M14 = assay: Antiproliferative activity against human M14 cells assessed as cell viability at 10^-5 M incubated for 48 hrs by sulforhodamine B assay relative to control; conditions: M14, 48 h, read-out: Activity
UACC-62 = assay: Antiproliferative activity against human UACC62 cells assessed as cell viability at 10^-5 M incubated for 48 hrs by sulforhodamine B assay relative to control; conditions: UACC-62, 48 h, read-out: Activity
RXF 393 = assay: Antiproliferative activity against human RXF393 cells assessed as cell viability at 10^-5 M incubated for 48 hrs by sulforhodamine B assay relative to control; conditions: RXF 393, 48 h, read-out: Activity
HL-60(TB) = assay: Antiproliferative activity against human HL-60(TB) cells assessed as cell viability at 10^-5 M incubated for 48 hrs by sulforhodamine B assay relative to control; conditions: HL-60, 48 h, read-out: Activity
SK-MEL-28 = assay: Antiproliferative activity against human SK-MEL-28 cells assessed as cell viability at 10^-5 M incubated for 48 hrs by sulforhodamine B assay relative to control; conditions: SK-MEL-28, 48 h, read-out: Activity

SMILES | viability at 10 µM (A498) | viability at 10 µM (HOP-62) | viability at 10 µM (MDA-MB-435) | viability at 10 µM (SNB-19) | viability at 10 µM (MOLT-4) | viability at 10 µM (KM12) | viability at 10 µM (SW-620) | viability at 10 µM (Malme-3M) | viability at 10 µM (OVCAR-3) | viability at 10 µM (OVCAR-5) | viability at 10 µM (SNB-75) | viability at 10 µM (PC-3) | viability at 10 µM (BT-549) | viability at 10 µM (MDA-MB-468) | viability at 10 µM (NCI/ADR-RES) | viability at 10 µM (HCT-15) | viability at 10 µM (HCC 2998) | viability at 10 µM (A549) | viability at 10 µM (SF-268 [1]) | viability at 10 µM (SK-OV-3) | other results
O=C1NC2C(CC(O)C(O)C2O)c2cc3c(c(O)c21)OCO3 (racemic) | -53.4% | -18.9% | -42.2% | -8.68% | -6.14% | -11.5% | -0.05% | -48.7% | -10.8% | -13.4% | -25.3% | -8.66% | -12.5% | -45.8% | 1.95% | 1.81% | -22.8% | -8.4% | -4.43% | -11.2% | GI50 (MDA-MB-231): 100 nM; TGI (MDA-MB-231): 880 nM; GI50 (NCI-H322M): 49.6 nM; TGI (NCI-H322M): 480 nM; CC50 (NCI-H322M): > 100000 nM; viability at 10 µM (DU-145): -19.1%; GI50 (SF-268 [2]): 127 nM; TGI (SF-268 [2]): 800 nM; viability at 10 µM (NCI-H460): -15.1%; viability at 10 µM (COLO 205): -38.2%; viability at 10 µM (M14): -81.7%; viability at 10 µM (UACC-62): -48.4%; viability at 10 µM (RXF 393): -37.3%; viability at 10 µM (HL-60(TB)): -37.8%
O=C1NC2C(CC(O)C(O)C2O)c2cc3c(c(O)c21)OCCO3 (racemic) | -29.7% | -26.5% | 1.45% | -10.4% | -0.8% | -2.6% | 4.85% | -23.8% | -13% | 3% | -4.29% | -9.66% | -17.5% | -27.2% | -0.44% | -11.9% | -46.2% | -14.3% | -0.71% | -10.9% | GI50 (MDA-MB-231): 232 nM; LC50 (MDA-MB-231): 13200 nM; TGI (MDA-MB-231): 1160 nM; GI50 (NCI-H322M): 105 nM; TGI (NCI-H322M): 620 nM; CC50 (NCI-H322M): > 100000 nM; viability at 10 µM (SK-MEL-28): -16.4%; viability at 10 µM (DU-145): -2.39%; GI50 (SF-268 [2]): 260 nM; LC50 (SF-268 [2]): > 100000 nM; TGI (SF-268 [2]): 1220 nM; viability at 10 µM (NCI-H460): 1.26%; viability at 10 µM (COLO 205): -49%; viability at 10 µM (M14): -45.8%; viability at 10 µM (UACC-62): -13.3%; viability at 10 µM (RXF 393): -24.2%; viability at 10 µM (HL-60(TB)): -18.8%
CCOc1cc2c(cc1OCC)C1CC(O)C(O)C(O)C1NC2=O (racemic) | 111% | 99.2% | 109% | 105% | 96.5% | 104% | 99.4% | 102% | 107% | 101% | 98.9% | 92.8% | 101% | 94.2% | 101% | 101% | 106% | 101% | 97.9% | 95.9% | viability at 10 µM (SK-MEL-28): 110%; viability at 10 µM (DU-145): 106%; viability at 10 µM (NCI-H460): 111%; viability at 10 µM (COLO 205): 106%; viability at 10 µM (M14): 99.1%; viability at 10 µM (UACC-62): 96.1%; viability at 10 µM (RXF 393): 105%; viability at 10 µM (HL-60(TB)): 94.5%
